Results published in US8802597B2, “Herbicidal pyrimidines” (E I du Pont de Nemours and Company, priority 2003, dated 2014).

Assays:
Experiment in all cases: Test C postemergence
Format in all cases: in vivo
wild oat (Avena fatua) = settings: for Plant response rating, Oat, Wild: scale 0 to 100
Summary of the method: (§1)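 Applications: preemergence onto seeded soil and postemergence onto 1- to 4-leaf seedlings, compound carried in non-phytotoxic solvent plus surfactant. Kept in greenhouse 12 to 14 days. Scored visually relative to untreated controls, 0 (no effect) to 100 (complete control).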

[1] = tested on: windgrass (Apera spica-venti); settings: for Plant response rating, Windgrass: scale 0 to 100
Summary of the method: as §1

[2] = tested on: canarygrass (Phalaris minor); settings: for Plant response rating, Canarygrass: scale 0 to 100
Summary of the method: as §1

[3] = tested on: Italian ryegrass (Lolium multiflorum); settings: for Plant response rating, Ryegrass, Italian: scale 0 to 100
Summary of the method: as §1

[4] = tested on: blackgrass (Alopecurus myosuroides); settings: for Plant response rating, Blackgrass: scale 0 to 100
Summary of the method: as §1

[5] = tested on: green foxtail (Setaria viridis); settings: for Plant response rating, Foxtail, Green: scale 0 to 100
Summary of the method: as §1

[6] = tested on: winter barley (Hordeum vulgare); settings: for Plant response rating, Barley: scale 0 to 100
Summary of the method: as §1

[7] = tested on: downy brome (Bromus tectorum); settings: for Plant response rating, Bromegrass, Downy: scale 0 to 100
Summary of the method: as §1

[8] = tested on: wheat (Triticum aestivum); settings: for Plant response rating, Wheat: scale 0 to 100
Summary of the method: as §1

[9] = 62 g ai/ha, scale 0 to 100 (0 no effect, 100 complete control)
[10] = 125 g ai/ha, scale 0 to 100 (0 no effect, 100 complete control)

COC(=O)c1nc(C2CC2)nc(NO)c1Br [Compound 35]
Plant response rating, Oat, Wild (wild oat (Avena fatua); 250 g ai/ha): 45
Plant response rating, Oat, Wild (wild oat (Avena fatua); 500 g ai/ha): 55
pest or weed control at 62 g/ha (wild oat (Avena fatua); Avena fatua, post-emergence, 62 g ai/ha, scale 0 to 100 (0 no effect, 100 complete control), read-out: Oat, Wild plant response rating): 30%
pest or weed control at 125 g/ha (wild oat (Avena fatua); Avena fatua, post-emergence, 125 g ai/ha, scale 0 to 100 (0 no effect, 100 complete control), read-out: Oat, Wild plant response rating): 45%
Plant response rating, Windgrass ([1]; 250 g ai/ha): 65
Plant response rating, Windgrass ([1]; 500 g ai/ha): 65
pest or weed control at 62 g/ha ([1]; Apera spica-venti, post-emergence, 62 g ai/ha, scale 0 to 100 (0 no effect, 100 complete control), read-out: Windgrass plant response rating): 40%
pest or weed control at 125 g/ha ([1]; Apera spica-venti, post-emergence, 125 g ai/ha, scale 0 to 100 (0 no effect, 100 complete control), read-out: Windgrass plant response rating): 55%
Plant response rating, Canarygrass ([2]; 250 g ai/ha): 45
Plant response rating, Canarygrass ([2]; 500 g ai/ha): 55
pest or weed control at 62 g/ha ([2]; Phalaris minor, post-emergence, 62 g ai/ha, scale 0 to 100 (0 no effect, 100 complete control), read-out: Canarygrass plant response rating): 35%
pest or weed control at 125 g/ha ([2]; Phalaris minor, post-emergence, 125 g ai/ha, scale 0 to 100 (0 no effect, 100 complete control), read-out: Canarygrass plant response rating): 45%
Plant response rating, Ryegrass, Italian ([3]; 250 g ai/ha): 40
Plant response rating, Ryegrass, Italian ([3]; 500 g ai/ha): 40
pest or weed control at 62 g/ha ([3]; Lolium multiflorum, post-emergence, 62 g ai/ha, scale 0 to 100 (0 no effect, 100 complete control), read-out: Ryegrass, Italian plant response rating): 40%
pest or weed control at 125 g/ha ([3]; Lolium multiflorum, post-emergence, 125 g ai/ha, scale 0 to 100 (0 no effect, 100 complete control), read-out: Ryegrass, Italian plant response rating): 40%
Plant response rating, Blackgrass ([4]; 250 g ai/ha): 60
Plant response rating, Blackgrass ([4]; 500 g ai/ha): 65
pest or weed control at 62 g/ha ([4]; Alopecurus myosuroides, post-emergence, 62 g ai/ha, scale 0 to 100 (0 no effect, 100 complete control), read-out: Blackgrass plant response rating): 50%
pest or weed control at 125 g/ha ([4]; Alopecurus myosuroides, post-emergence, 125 g ai/ha, scale 0 to 100 (0 no effect, 100 complete control), read-out: Blackgrass plant response rating): 50%
Plant response rating, Foxtail, Green ([5]; 250 g ai/ha): 60
Plant response rating, Foxtail, Green ([5]; 500 g ai/ha): 65
pest or weed control at 62 g/ha ([5]; Setaria viridis, post-emergence, 62 g ai/ha, scale 0 to 100 (0 no effect, 100 complete control), read-out: Foxtail, Green plant response rating): 40%
pest or weed control at 125 g/ha ([5]; Setaria viridis, post-emergence, 125 g ai/ha, scale 0 to 100 (0 no effect, 100 complete control), read-out: Foxtail, Green plant response rating): 50%
Plant response rating, Barley ([6]; 250 g ai/ha): 40
Plant response rating, Barley ([6]; 500 g ai/ha): 45
plant injury at 62 g/ha ([6]; Hordeum vulgare, post-emergence, 62 g ai/ha, scale 0 to 100 (0 no effect, 100 complete control), read-out: Barley plant response rating): 20%
plant injury at 125 g/ha ([6]; Hordeum vulgare, post-emergence, 125 g ai/ha, scale 0 to 100 (0 no effect, 100 complete control), read-out: Barley plant response rating): 35%
Plant response rating, Bromegrass, Downy ([7]; 250 g ai/ha): 40
Plant response rating, Bromegrass, Downy ([7]; 500 g ai/ha): 40
pest or weed control at 62 g/ha ([7]; Bromus tectorum, post-emergence, 62 g ai/ha, scale 0 to 100 (0 no effect, 100 complete control), read-out: Bromegrass, Downy plant response rating): 30%
pest or weed control at 125 g/ha ([7]; Bromus tectorum, post-emergence, 125 g ai/ha, scale 0 to 100 (0 no effect, 100 complete control), read-out: Bromegrass, Downy plant response rating): 30%
Plant response rating, Wheat ([8]; 250 g ai/ha): 45
Plant response rating, Wheat ([8]; 500 g ai/ha): 45
plant injury at 62 g/ha ([8]; Triticum aestivum, post-emergence, 62 g ai/ha, scale 0 to 100 (0 no effect, 100 complete control), read-out: Wheat plant response rating): 35%
plant injury at 125 g/ha ([8]; Triticum aestivum, post-emergence, 125 g ai/ha, scale 0 to 100 (0 no effect, 100 complete control), read-out: Wheat plant response rating): 40%

CCOC(=O)C(Cl)(Cl)c1nc(C2CC2)nc(N)c1Br [Compound 34]
Plant response rating (scale of 0 to 100), Oat, Wild (wild oat (Avena fatua); 31 g ai/ha): 20
Oat, Wild plant response rating (wild oat (Avena fatua); [9]): 40
Oat, Wild plant response rating (wild oat (Avena fatua); [10]): 45
Plant response rating, Oat, Wild (wild oat (Avena fatua); 250 g ai/ha): 50
Plant response rating (scale of 0 to 100), Windgrass ([1]; 31 g ai/ha): 40
Windgrass plant response rating [1, 9]: 40
Windgrass plant response rating [1, 10]: 50
Plant response rating, Windgrass ([1]; 250 g ai/ha): 60
Plant response rating (scale of 0 to 100), Canarygrass ([2]; 31 g ai/ha): 20
Canarygrass plant response rating [2, 9]: 30
Canarygrass plant response rating [2, 10]: 35
Plant response rating, Canarygrass ([2]; 250 g ai/ha): 45
Plant response rating (scale of 0 to 100), Ryegrass, Italian ([3]; 31 g ai/ha): 40
Ryegrass, Italian plant response rating [3, 9]: 40
Ryegrass, Italian plant response rating [3, 10]: 45
Plant response rating, Ryegrass, Italian ([3]; 250 g ai/ha): 60
Plant response rating (scale of 0 to 100), Blackgrass ([4]; 31 g ai/ha): 0
Blackgrass plant response rating [4, 9]: 35
Blackgrass plant response rating [4, 10]: 35
Plant response rating, Blackgrass ([4]; 250 g ai/ha): 45
Plant response rating (scale of 0 to 100), Foxtail, Green ([5]; 31 g ai/ha): 40
Foxtail, Green plant response rating [5, 9]: 40
Foxtail, Green plant response rating [5, 10]: 45
Plant response rating, Foxtail, Green ([5]; 250 g ai/ha): 45
Plant response rating (scale of 0 to 100), Barley ([6]; 31 g ai/ha): 20
Barley plant response rating [6, 9]: 20
Barley plant response rating [6, 10]: 30
Plant response rating, Barley ([6]; 250 g ai/ha): 40
Plant response rating (scale of 0 to 100), Bromegrass, Downy ([7]; 31 g ai/ha): 0
Bromegrass, Downy plant response rating [7, 9]: 0
Bromegrass, Downy plant response rating [7, 10]: 30
Plant response rating, Bromegrass, Downy ([7]; 250 g ai/ha): 35
Plant response rating (scale of 0 to 100), Wheat ([8]; 31 g ai/ha): 0
Wheat plant response rating [8, 9]: 20
Wheat plant response rating [8, 10]: 30
Plant response rating, Wheat ([8]; 250 g ai/ha): 35
